Reference: article PMC8997913, “Lichen Secondary Metabolites Inhibit the Wnt/β-Catenin Pathway in Glioblastoma Cells and Improve the Anticancer Effects of Temozolomide” (Cells, 2022)

Columns and labels:
[1] = system: T98G cells; assay: Cell cycle distribution, flow cytometry, T98G; assay type: cell-based, human; conditions: 48 h
Protocol: (§1) Based on the MTT test, the lichen secondary metabolite concentrations allowing the survival of more than 70% of cells were chosen for the subsequent experiments. The compounds were added as follows: A-172 cells—atranorin 25 µM, caperatic acid 50 µM, physodic acid 25 µM, squamatic acid 25 µM, salazinic acid 50 µM, and lecanoric acid 100 µM; T98G cells—atranorin 50 µM, caperatic acid 100 µM, physodic acid 25 µM, squamatic acid 50 µM, salazinic acid 100 µM, and lecanoric acid 100 µM; U-138 MG cells—atranorin 25 µM, caperatic acid 50 µM, physodic acid 25 µM, squamatic acid 50 µM, salazinic acid 50 µM, and lecanoric acid 100 µM. As far as the TMZ treatment is concerned, it was added in the concentrations depending on the MGMT expression and methylation status, i.e., TMZ 30 µM was added to the A-172 cell line, and TMZ 100 µM was added to both the T98G and U-138 MG cell lines. In the case of the 2D culture, the cells were treated with the compounds 24 h after seeding, whereas, in regard to 3D culture, 5 days were needed to form spheroids. All subsequent analyses were performed 48 h after treatment.
The Muse Cell Cycle Kit and the Muse Cell Cycle Software (both Merck, Darmstadt, Germany) were used to quantitatively measure the percentage of cells in the G0/G1, S, and G2/M phases of the cell cycle. The assay utilizes the nuclear DNA intercalating stain propidium iodide and RNAse A in a formulation. Propiodium iodide discriminates cells at different stages of the cell cycle, based on differential DNA content, while the presence of RNAse increases the specificity of DNA staining. Briefly, the cells were seeded on 6-well plates (100,000 cells per well) and incubated for 24 h. Afterward, the lichen secondary metabolites were added to the concentrations chosen based on the MTT test, allowing >70% of cell survival. 0.5% DMSO and 100 nM topotecan were used as negative and positive controls, respectively. The analysis was performed after a 48 h incubation with lichen secondary metabolites and started with washing the cells with PBS, followed by cell fixation with ice-cold ethanol and overnight incubation at −20 °C. Following steps included cell re-washing with PBS, then a 30 min incubation in the dark with propiodium iodide-RNAse A formulation, and a final analysis on Muse™ Cell Analyzer (Merck, Darmstadt, Germany).

[2] = system: U-138 MG cells; assay: MTT test, U-138 MG; assay type: cell-based, human; conditions: 48 h; for IC50: Homo sapiens, U138-MG, three independent experiments, read-out: IC50 [uM] ± SEM U-138 MG
Protocol: Three human GBM cell lines were used in this study, i.e., A-172 (ATCC-CRL-1620), T98G (92090213), and U-138 MG (ATCC-HTB-16). The A-172 and U-138 MG cell lines were purchased from the American Type Culture Collection (ATCC), whereas the T98G cell line was obtained from the European Collection of Authenticated Cell Cultures (ECACC). It has been confirmed by us that O^6-methylguanine-DNA methyltransferase (MGMT), the key factor determining the response to alkylating agents, such as TMZ, is expressed in T98G and U-138 MG cells, whereas in A-172 the expression of MGMT is silenced by promoter methylation. Therefore, the cell lines differ in terms of TMZ sensitivity; A-172 is regarded as TMZ sensitive, whereas T98G and U-138 MG are TMZ resistant.
The cells were grown as monolayers (2D cell culture) in the recommended media: A-172 were grown in the ATCC-formulated DMEM (Merck, Darmstadt, Germany), whereas T98G and U-138 MG cell lines were grown in the ATCC-formulated EMEM (Merck, Darmstadt, Germany). These media were supplemented with FBS (Biowest, Nuaillé, France) to a final concentration of 10%, as well as antibiotics (penicillin and streptomycin) (Merck, Darmstadt, Germany) to the final concentrations of 1%. For the experiments, the amount of FBS was reduced to 5%. The medium for the T98G cell line was supplemented with 2 mM glutamine, 1% nonessential amino acids, and 1% sodium pyruvate (all purchased from Merck, Darmstadt, Germany).
In order to analyze the cytotoxicity of the analyzed lichen secondary metabolites, as well as to establish the appropriate concentrations for further analysis (allowing the survival of >70% of cells), we performed the MTT test. The procedure of the test was described previously. Briefly, the cells (10,000 cells per well) were seeded on the 96-well plates and left for 24 h. Afterwards, the analyzed compounds in the concentration range of 1 µM up to 100 µM were added to the cells and left for 48 h incubation. DMSO treated cells served as control. After the above-mentioned time, the cells were washed twice with warm PBS and incubated for 3 h in the presence of a fresh medium containing MTT salt (0.5 mg/mL). Then the formazan crystals were dissolved in acidic isopropanol. The absorbance was measured at 570 and 690 nm on a Tecan Infinite M200 microplate reader (Grödig, Austria). The experiments were repeated at least three times.

[3] = Parallel artificial membrane permeability assay for the blood-brain barrier (PAMPA-BBB); assay type: in vitro ADME; conditions: pH 7.4, 4 h, 37 °C; for Papp at 4 h, 24.75 µg/mL: mean ± SEM, n = 3, Pe > 1.5 high, < 1.5 low permeation predicted, read-out: Pe × 10^−6
Protocol: The parallel artificial membrane permeability assay (PAMPA) for the blood-brain barrier (BBB) (Pion Inc., Billerica, MA, USA) was used to analyze whether the lichen secondary metabolites tested in this study were able to cross the BBB. The stock solutions (5 mg/mL) of tested compounds were prepared using DMSO. Next, the donor solution (24.75 μg/mL) using Prisma buffer (pH = 7.4; Prisma HT, Pion Inc., Billerica, MA, USA) were made. Firstly, 180 μL of the donor solution were added to the donor wells. Then the filter membranes were coated with 5 μL BBB-1 lipid solution (Pion Inc., Billerica, MA, USA) and the acceptor wells were filled with 200 μL BSB (Brain Sink Buffer, Pion Inc., Billerica, MA, USA). The plates were sandwiched together and incubated for 4 h at 37 °C (Thermo Scientific MaxQ 4450, Waltham, MA, USA). The results were determined by spectroscopic analysis (Multiskan GO microplate reader, Waltham, MA, USA), with the appropriate wavelength for a given compound (240 nm for […] salazinic acid, 250 nm for atranorin and squamatic acid, 263 nm for physodic acid, and 270 nm for lecanoric acid). […] Pe is the effective permeability coefficient (cm/s), VD-donor volume, VA-acceptor volume, Ceq-equilibrium concentration, Ceq=CD×VD+CA×VA/VD+VA , S-membrane area, and t-incubation time (in seconds). […] Samples were analyzed in triplicate, and the average was reported.

[4] = system: U-138 MG cells; assay: Apoptosis, caspase-3/7 and 7-AAD flow cytometry, U-138 MG; assay type: cell-based, human; conditions: 48 h
Protocol: as §1
The fluorescent-based analysis of apoptosis using Muse® Caspase-3/7 Kit was performed in order to analyze the percentage of live, early, and late apoptotic; total apoptotic; and dead cells in A-172, T98G, and U-138 MG GBM cells treated with lichen secondary metabolites. The principle of the method relies on the measurement of the activity of executioner caspases, i.e., caspase-3 and caspase-7, as well as analyzing the integrity of the cell membrane with the use of a dead cell marker 7-AAD. Cell seeding and treatment followed the same protocol as for cell cycle or ROS generation analysis, while the subsequent procedures were performed according to the manufacturer’s recommendations.

Q: With `Cc1cc(O)c(C=O)c2c1C(=O)Oc1c(CO)c(O)c3c(c1O2)C(O)OC3=O` (stereo not drawn) [Salazinic acid] as the compound, how does the “number of cells in G0/G1 phases vs control” value [1] read?
A: slightly increased

Q: And the “number of cells in S phase vs control” value [1]?
A: reduced

Q: What about the “percentage of cells in G2/M phases vs control” value [1] of the same compound?
A: diminished

Q: What about the IC50 [2] of the same compound?
A: > 100 µM

Q: And the “number of viable cells” value ([2]; U-138 MG, 50 µM)?
A: significantly reduced the number of viable cells

Q: And the “Pe × 10^−6 (cm/s), class” value [3]?
A: np (np—classified as non-permeable (i.e., Pe < 0.5 × 10^−6 cm/s))

Q: With `COc1cc(C)c(C(=O)Oc2cc(C)c(C(=O)O)c(O)c2C)c(O)c1C(=O)O` [Squamatic acid] as the compound, how does the IC50 [2] read?
A: > 100 µM

Q: And the Papp at 4 h, 24.75 µg/mL [3]?
A: 0.5 ± 0.1 ×10⁻⁶ cm/s

Q: Which “number of cells in G0/G1 phases vs control” value [1] does the source give for `CCCCCCCCCCCCCCC(C(=O)O)C(O)(CC(=O)OC)C(=O)O` (stereo not drawn) [Caperatic acid] here?
A: diminished

Q: What about the “effect on apoptosis” value [4] of the same compound?
A: anti-apoptotic effect

Q: What about the IC50 [2] of the same compound?
A: > 100 µM

Q: What about the Papp at 4 h, 24.75 µg/mL [3] of the same compound?
A: 5.2 ± 0.1 ×10⁻⁶ cm/s

Q: Which results are given for `COC(=O)c1c(C)cc(OC(=O)c2c(C)cc(O)c(C=O)c2O)c(C)c1O` [Atranorin]?
A: number of cells in G0/G1 phases vs control [1]: slightly increased; number of cells in S phase vs control [1]: reduced; effect on apoptosis [4]: anti-apoptotic effect; IC50 [2]: 47.8 ± 2.16 µM; Papp at 4 h, 24.75 µg/mL [3]: 2.2 ± 0.1 ×10⁻⁶ cm/s

Q: With `Cc1cc(OC(=O)c2c(C)cc(O)cc2O)cc(O)c1C(=O)O` [Lecanoric acid] as the compound, how does the “number of late apoptotic cells vs control” value ([4]; 100 µM) read?
A: increased

Q: What about the “percentage of early apoptotic cells vs control” value ([4]; 100 µM) of the same compound?
A: decreased

Q: And the IC50 [2]?
A: > 100 µM

Q: And the Papp at 4 h, 24.75 µg/mL [3]?
A: 1.7 ± 0.2 ×10⁻⁶ cm/s
